Results: patent US20250248979A1, “NOVEL GPX4 INHIBITORS AND USES THEREOF” (THE TRUSTEES OF COLUMBIA UNIVERSITY IN THE CITY OF NEW YORK, priority 2022, published 2025)

Molecular target: T1, GPX4 (Homo sapiens, UniProt P36969)
T1 sequence (P36969 1-170 isoform P36969-2): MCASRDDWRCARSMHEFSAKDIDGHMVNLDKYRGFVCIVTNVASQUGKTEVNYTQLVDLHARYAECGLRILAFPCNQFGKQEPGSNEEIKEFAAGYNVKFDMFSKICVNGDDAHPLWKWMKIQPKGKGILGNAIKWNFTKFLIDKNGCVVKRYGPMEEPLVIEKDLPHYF
Test: GPX4 activity assay in cell lysates (NADPH-coupled)
Assay type: biochemical
Set-up: endogenous in cells; host or cells: A-673 cell lysate
Experimental: Determination of GPX4 activity in cell lysates was performed as previously described by Roveri et al. 1994 with minor modifications. Briefly, the assay measures the consumption of NADPH, which has a characteristic absorbance at 340 nm, over time as a proxy for GPX4 activity. The rationale for this is that as GPX4 reduces phospholipid hydroperoxides, it oxidizes glutathione, which is then regenerated by glutathione reductase at the expense of NADPH. NADPH is added to the assay in excess such that the reduction of oxidized glutathione is not the rate-limiting reaction in the assay. Thus, the resulting reduction in NADPH absorbance over time reflects GPX4 activity.
The GPX4-specific substrate phosphatidylcholine hydroperoxide (PCOOH) was prepared by enzymatic hydroperoxidation. Specifically, 0.3 mM phosphatidylcholines (Sigma-Aldrich) were incubated with 0.7 mg soybean lipoxidase type IV (Sigma-Aldrich) in 22 mL of 0.2 M Tris-HCl pH 8.8 with 3 mM sodium deoxycholate at room temperature under continuous stirring for 30 minutes. A Sep-Pak C18 cartridge (Waters-Millipore) was pre-washed with methanol and equilibrated with water, then the substrate mixture was loaded. The column was washed with 10 volumes of water and PCOOH was eluted with 2 mL of methanol.
To prepare the cell lysate containing native GPX4, A-673 cells were cultured with 20 nM sodium selenite to confluency over two days then harvested and washed with cold PBS. Cells were then resuspended at 10 million cells per 1 mL LCW lysis buffer (0.5% peroxide-free Triton X-100, 0.5% sodium deoxycholate salt, 150 mM NaCl, 20 mM Tris-HCl pH 7.5, 10 mM EDTA, 30 mM sodium pyrophosphate, and complete protease inhibitor cocktail), vortexed for 30 seconds, and incubated on ice for 15 minutes. After lysis, the lysates were centrifuged at 14,000×g and 4° C. for 15 minutes. The supernatants were transferred to new pre-chilled tube and the debris pellet was discarded. The protein concentration in the lysate was determined for normalization using the BCA Protein Assay Kit (Pierce).
To measure GPX4 activity, 50 μL of cell lysate was combined with 200 μL activity assay buffer (0.1% Triton X-100, 100 mM Tris-HCl pH 8.0, 10 mM sodium azide, 5 mM EDTA, 0.6 IU/mL glutathione reductase, 0.5 mM NADPH and 3 mM GSH) and compounds of interest in a clear 96-well plate and incubated at 37° C. for 45 minutes. Compounds were dissolved in DMSO. All conditions were tested in triplicate. PCOOH substrate was added to the mixture to initiate GPX4 activity just before reading the plate. The absorbance of NADPH at 340 nm was monitored kinetically over time for 25 minutes. Buffer-only controls and controls without substrate containing only the methanol vehicle were performed to assess background and baseline signal. GPX4 activity was calculated as previously reported by Stolwijk et al. 2020 and results were analyzed in GraphPad Prism 9.

Structure (SMILES) | GPX4% inhibition at 5 μM | GPX4% inhibition at 2.5 μM | also measured
Cn1nc(C(=O)NC(C)(C)COC(=O)CCl)c2ccc(-c3coc4ccccc34)cc21 [QW-535] | 62.2 ± 5.1% | – | –
CCOc1ncc(-c2ccc3c(C(=O)NC(C)(C)COC(=O)CCl)nn(C)c3c2)cn1 [QW-536] | 46.6 ± 2.3% | – | –
Cn1nc(C(=O)NC(C)(C)COC(=O)CCl)c2ccc(-c3ccc(N4CCOCC4)nc3)cc21 [QW-537] | 46.1 ± 2.7% | – | –
Cn1nc(C(=O)NC(C)(C)COC(=O)CCl)c2ccc(-c3ccc(CN4CCOCC4)cc3)cc21 [QW-539] | 49.6 ± 4.5% | – | –
Cn1nc(C(=O)NC(C)(C)COC(=O)CCl)c2ccc(-c3cnc4ccccc4c3)cc21 [QW-542] | 75.6 ± 4.5% | – | –
Cn1nc(C(=O)NC(C)(C)COC(=O)CCl)c2ccc(-c3ccc(N4CCOCC4)cc3)cc21 [QW-547] | 72.0 ± 0.4% | – | –
C=Cc1ccc(-c2ccc3c(C(=O)NC(C)(C)COC(=O)CCl)nn(C)c3c2)cc1 [QW-554] | 41.4 ± 4.5% | – | –
C#Cc1ccc(-c2ccc3c(C(=O)NC(C)(C)COC(=O)CCl)nn(C)c3c2)cc1 [QW-555] | 20.2 ± 0.5% | – | –
COc1cc(-c2ccc3c(C(=O)NC(C)(C)COC(=O)CCl)nn(C)c3c2)ccc1Cl [QW-556] | 80.2 ± 1.8% | – | GPX4 inhibitory activity, result in words: reduced the inhibitory activity
CSc1ccc(-c2ccc3c(C(=O)NC(C)(C)COC(=O)CCl)nn(C)c3c2)cc1Cl [QW-558] | 91.2 ± 2.3% | – | –
COc1ccc(-c2ccc3c(C(=O)NC(C)(C)COC(=O)CCl)nn(C)c3c2)cc1F [QW-567] | 54.7 ± 3.4% | – | –
CN(C)c1ccc(-c2ccc3c(C(=O)NC(C)(C)COC(=O)CCl)nn(C)c3c2)cc1 [QW-568] | 67.5 ± 3.9% | – | GPX4 inhibition rate (concentration not given): 50%
COC(=O)c1ccc(-c2ccc3c(C(=O)NC(C)(C)COC(=O)CCl)nn(C)c3c2)cc1Cl [QW-571] | 82.5 ± 5.2% | – | –
COC(=O)C=Cc1ccc(-c2ccc3c(C(=O)NC(C)(C)COC(=O)CCl)nn(C)c3c2)cc1 [QW-574] | 72.8 ± 7.7% | – | –
Cn1nc(C(=O)NC(C)(C)COC(=O)CCl)c2ccc(-c3ccc(C=CCCl)cc3)cc21 [QW-575] | 35.9 ± 1.3% | – | –
Cn1nc(C(=O)NC(C)(C)COC(=O)CCl)c2ccc(-c3cnn(Cc4ccccc4)c3)cc21 [QW-579] | 66.3 ± 3.4% | – | –
CC(C)(COC(=O)CCl)NC(=O)c1n[nH]c2cc(-c3ccc(N4CCOCC4)c(Cl)c3)ccc12 [QW-583] | 70.9 ± 6.7% | – | GPX4 inhibitory activity, result in words: slight loss of inhibitory activity
COc1ccc(-c2ccc3c(c2)c(C(=O)NC(C)(C)COC(=O)CCl)nn3C)cc1Cl [QW-584] | 9.5 ± 5.1% | – | –
Cn1nc(C(=O)NC(C)(C)COC(=O)CCl)c2cc(-c3ccc(N4CCOCC4)c(Cl)c3)ccc21 [QW-585] | 23.3 ± 5.2% | – | –
COc1ccc(F)c(-c2ccc3c(C(=O)NC(C)(C)COC(=O)CCl)nn(C)c3c2)c1 [QW-588] | 59.5 ± 5.7% | – | –
COc1ccc(Cl)cc1-c1ccc2c(C(=O)NC(C)(C)COC(=O)CCl)nn(C)c2c1 [QW-590] | 53.5 ± 6.3% | – | –
Cn1nc(C(=O)NC(C)(C)COC(=O)CCl)c2ccc(-c3ccc(C=O)cc3)cc21 [QW-591] | 69.4 ± 3.3% | – | –
Cn1nc(C(=O)NC(C)(C)COC(=O)CCl)c2ccc(-c3cccc(C=O)c3)cc21 [QW-599] | – | 51.0 ± 4.4% | –
Cn1nc(C(=O)NC(C)(C)CC(=O)N2CCN(C(=O)CCl)CC2)c2ccc(Br)cc21 [QW-638] | – | – | GPX4% inhibition at 2.5 μM (generation 2): 39.0 ± 26.2%
C=C(CN1CCOCC1)C(=O)NCC(C)(C)NC(=O)c1nn(C)c2cc(Br)ccc12 [QW-648] | – | – | GPX4% inhibition at 2.5 μM (generation 2): 15.8 ± 24.7%
Cn1nc(C(=O)N2CCC(OC(=O)CCl)C2(C)C)c2ccc(Br)cc21 (stereo not shown) [QW-673] | – | – | GPX4% inhibition at 2.5 μM (generation 2): 41.9 ± 63.4%
Cn1nc(C(=O)NC(COC(=O)CCl)C(F)(F)F)c2ccc(Br)cc21 (stereo not shown) [QW-683] | – | – | GPX4% inhibition at 2.5 μM (generation 2): −37.4 ± 5.2%

Further lines, with some results ahead:

GPX4% inhibition at 5 μM | GPX4% inhibition at 2.5 μM | Structure (SMILES) | also measured
– | 45.5 ± 4.4% | Cn1nc(C(=O)NC(C)(C)COC(=O)CCl)c2ccc(-c3ccc(Br)cc3)cc21 [QW-603] | –
– | 72.2 ± 5.9% | COc1ccc(-c2ccc3c(C(=O)NC(C)(C)COC(=O)CBr)nn(C)c3c2)cc1Cl [QW-608] | –
– | 6.7 ± 11.9% | C=CC(=O)OCC(C)(C)NC(=O)c1nn(C)c2cc(-c3ccc(OC)c(Cl)c3)ccc12 [QW-609] | –
– | 81.5 ± 1.9% | COc1ccc(-c2ccc3c(C(=O)NC(C)(C)COC(=O)CCl)nn(C)c3c2)cc1Br [QW-611] | –
– | −5.7 ± 11.7% | COc1ccc(-c2ccc3c(C(=O)NC(C)(C)COC(=O)C#C[Si](C)(C)C)nn(C)c3c2)cc1Cl [QW-612] | –
– | 80.9 ± 3.4% | CN1CCN(Cc2ccc(-c3ccc4c(C(=O)NC(C)(C)COC(=O)CCl)nn(C)c4c3)cc2)CC1 [QW-617] | –
– | 18.1 ± 5.9% | Cn1nc(C(=O)NC(C)(C)COC(=O)CCl)c2ccc(-c3ccc(NS(C)(=O)=O)cc3)cc21 [QW-618] | –
– | 42.6 ± 8.0% | Cn1nc(C(=O)NC(C)(C)COC(=O)CCl)c2ccc(-c3ccc(C(=O)N4CCN(C(=O)OC(C)(C)C)CC4)cc3)cc21 [QW-619] | –
– | 63.8 ± 7.8% | C=C(C)C(=O)Nc1ccc(-c2ccc3c(C(=O)NC(C)(C)COC(=O)CCl)nn(C)c3c2)cc1 [QW-620] | –
– | 14.9 ± 16.7% | Cn1nc(C(=O)NC(C)(C)CNC(=O)CCl)c2ccc(-c3ccc(N4CCOCC4)c(Cl)c3)cc21 [QW-629] | –
– | 14.3 ± 16.5% | CSc1ccc(-c2ccc3c(C(=O)NC(C)(C)CNC(=O)CCl)nn(C)c3c2)cc1Cl [QW-631] | –
– | −4.9 ± 21.8% | COC(=O)c1ccc(-c2ccc3c(C(=O)NC(C)(C)CNC(=O)CCl)nn(C)c3c2)cc1Cl [QW-632] | –
– | 14.0 ± 15.4% | CC(C)Oc1ccc(-c2ccc3c(C(=O)NC(C)(C)CNC(=O)CCl)nn(C)c3c2)cc1Cl [QW-635] | –
76.4 ± 32.7% | 50.2 ± 22.0% | Cn1nc(C(=O)NC(C)(C)CNC(=O)CCl)c2ccc(-c3ccc(Cl)c(Cl)c3)cc21 [QW-636] | –
– | 31.4 ± 18.5% | CC=CC(=O)OCC(C)(C)NC(=O)c1nn(C)c2cc(-c3ccc(OC)c(Cl)c3)ccc12 [QW-644] | –
30.6 ± 12.2% | 52.0 ± 27.0% | COC(=O)C=CC(=O)OCC(C)(C)NC(=O)c1nn(C)c2cc(-c3ccc(OC)c(Cl)c3)ccc12 [QW-646] | –
20.9 ± 14.0% | 46.9 ± 35.9% | CN(C)CCCOc1ccc(-c2ccc3c(C(=O)NC(C)(C)COC(=O)CCl)nn(C)c3c2)cc1 [QW-647] | –
8.5 ± 13.4% | −1.2 ± 15.2% | Cn1nc(C(=O)NC(C)(C)COC(=O)CCl)c2ccc(-c3cc4cc(F)ccc4n3C(=O)OC(C)(C)C)cc21 [QW-659] | –
– | 22.9 ± 12.1% | COc1ccc(-c2ccc3c(C(=O)N4CCC(OC(=O)CCl)C4(C)C)nn(C)c3c2)cc1Cl (stereo not shown) [QW-676] | –
– | 31.0 ± 4.9% | CCOc1ccc(-c2ccc3c(-n4cc(C(C)(C)COC(=O)CCl)nn4)nn(C)c3c2)cc1Cl [QW-681] | –
– | 7.9 ± 2.3% | Cn1nc(C(=O)NC(COC(=O)CCl)C(F)(F)F)c2ccc(-c3ccc(N4CCOCC4)c(Cl)c3)cc21 (stereo not shown) [QW-687] | –
